For 9 substances, Observed inhibition, Expected inhibition and Synergy results are on record in patent US10568930B2, “Agents and methods of treatment” (Hexima Limited, priority 2014, dated 2020).

Common to all, as to assay type: cell-based
Holding throughout (conditions): for Expected inhibition: Ee, Limpel formula; for Synergy: Io-Ee

In assay [1] the test system is Candida albicans. Put plainly: Antifungal growth assay, defensin plus chemical fungicide. The arrangement: key to Synergy: Io-Ee in % inhibition points; <15 none, 15-30 low, 30-60 medium, >60 high. On the procedure:
Chemical fungicides were sourced commercially and were prepared as 10× stock solutions in H2O (caspofungin and fenpropimorph) or as a 100× stock in methanol (terbinafine).
(§1) Spores are isolated from sporulating fungus spp. growing on yeast extract peptone dextrose agar (Candida albicans, Cryptococcus gattii—1.5×10^6) or ½ strength Sabouraud dextrose agar (Trichophyton interdigitale, Microsporum fulvum—5×10^4). Spores are removed from the plates by the addition of ½ strength potato dextrose broth (PDB). Spore concentrations are measured using a haemocytometer.
(§2) Antifungal assays were conducted in 96 well microtitre plates. Wells were loaded with 10 μL of filter sterilized (0.22 μm syringe filter, Millipore) defensin (10× stock for each final concentration) or water, 10 μL, of filter sterilized (0.22 μm syringe filter, Millipore) proteinase inhibitor or chemical fungicide (10× stock for each final concentration) or water and 80 μL of 5×10^3 spores/mL in ½ strength PDB. The plates were incubated at 24° C. Fungal growth was assayed by measuring optical density at 595 nm (A595) using a microtitre plate reader (SpectraMax Pro M2; Molecular Devices. Growth was allowed to proceed until the optical density (OD) of the fungus in the absence of any test defensin reached an OD of 0.2. Each test was performed in duplicate.
(§3) Synergy is classified as the difference between the observed % fungal growth inhibition caused by the combination of a defensin and a proteinase inhibitor (or a defensin and a chemical fungicide) (Io value) and the expected % fungal growth inhibition of the defensin and the proteinase inhibitor (or the defensin and the chemical fungicide) based on the sum of the % fungal growth inhibition of the defensin and the proteinase inhibitor (or the defensin and the chemical fungicide) on their own (Ee value calculated according to the Limpel formula used by Richer et al. (1987) supra). The difference, Io-Ee, is the synergy value. A synergy value up to 15 means no significant synergy; 15-30 is a low level of synergy; 30-60 is a medium level of synergy; and >60 is a high level of synergy. Synergy calculations are presented in Tables 2 through 7 wherein, as indicated above, Ee is the expected effect from the additive response according to Limpel's formula expressed as percent inhibition and To is the percent inhibition observed. Synergy occurs when To values are higher than Ee values.

The test system of assay [2] is Trichophyton interdigitale. The assay is described as follows: Antifungal growth assay, defensin plus proteinase inhibitor. On the procedure: as §1, §2, §3
The test system of assay [3] is Candida albicans. The assay is described as above. The arrangement: key to Synergy: Io-Ee in % inhibition points; >60 high synergy, <15 none. The protocol: as §1, §2, §3
[4] abbreviates: defensin 2.5 μM + Caspofungin (4 ng/ml).
Setting [5] is: defensin 0.5 μM + BPTI (0.625 μM).
[6] abbreviates: defensin 0.5 μM + HvCPI6 (2.5 μM).
[7] abbreviates: defensin 0.5 μM + SlCys9N (2.5 μM).
[8] abbreviates: defensin 4 μM + BPTI (0.625 μM).
The mark [9] stands for this setting: defensin 4 μM + HyCPI6 (2.5 μM).
The mark [10] stands for this setting: defensin 2 μM + Fenpropimorph (2 ug/ml).
Where [11] appears, read: defensin 2 μM + BPTI (0.625 μM).
Where [12] appears, read: defensin 2 μM + HyCPI6 (2.5 μM).
Setting [13] is: defensin 2 μM + SlCys9N (2.5 μM).
Where [14] appears, read: defensin 4 μM + SlCys9N (2.5 μM).
Where [15] appears, read: defensin 1 μM + Fenpropimorph (2 ug/ml).
The mark [16] stands for this setting: defensin 1 μM + BPTI (0.625 μM).
Where [17] appears, read: defensin 1 μM + HyCPI6 (2.5 μM).
Setting [18] is: defensin 1 μM + SlCys9N (2.5 μM).
Where [19] appears, read: non-permeabilizing defensin 1 μM + Caspofungin (2 ng/ml).
[20] abbreviates: permeabilizing defensin 1 μM + Caspofungin (2 ng/ml).

Turning to “HXL001: Class I permeabilizing plant defensin, mature protein SEQ ID NO:26 (RHCLSQSHRFKGLCMSSNNCANVCQTENFPGGECKAEGATRKCFCKKIC; HXL001 Zea mays)”, the Observed inhibition came to 73.4% in assay [1] (setting [4]); 67.4% in assay [2] (setting [5]); 84.7% in assay [2] (setting [6]); 70.2% in assay [2] (setting [7]); 72.6% in assay [3] (setting [8]); 84.2% in assay [3] (setting [9]). For the same substance, the Observed inhibition in assay [3] (defensin 4 μM + SlCys9N (2 μM)) is reported as 85.0%. The Expected inhibition in assay [1] (setting [4]) is reported as 11.7%; in assay [2] (setting [5]), 36.9%; in assay [2] (setting [6]) it was 32.5%; in assay [2] (setting [7]) it was 16.8%; in assay [3] (setting [8]) it was 2.6%; in assay [3] (setting [9]), 59.2%. For the same substance, the Expected inhibition in assay [3] (defensin 4 μM + SlCys9N (2 μM)) is listed as 68.1%. Moreover, the Synergy in assay [1] (setting [4]) was 61.7; in assay [2] (setting [5]), 30.5; in assay [2] (setting [6]) it was 52.2; in assay [2] (setting [7]), 53.4; in assay [3] (setting [8]), 70.1; in assay [3] (setting [9]) it was 25.0. In assay [3] (defensin 4 μM + SlCys9N (2 μM)), the Synergy is given as 16.9.

Consider “HXL008: Class I permeabilizing plant defensin, mature protein SEQ ID NO:30 (KVCTKPSKFFKGLCGTDGACTTACRKEGLHSGYCQLKGFLNSVCVCRKHC; HXL008 Picramnia pentandra)”, for which the Observed inhibition in assay [1] (setting [10]) is reported as 87.3%; in assay [3] (setting [11]), 100.0%; in assay [3] (setting [12]), 63.8%; in assay [3] (setting [13]), 98.9%. For the same substance, the Expected inhibition was determined as 46.7% in assay [1] (setting [10]), 0.0% in assay [3] (setting [11]), 14.8% in assay [3] (setting [12]) and 30.2% in assay [3] (setting [13]). Further, the Synergy in assay [1] (setting [10]) is 40.6; in assay [3] (setting [11]), 100.0; in assay [3] (setting [12]), 49.0; in assay [3] (setting [13]), 68.7.

As to “HXL012: Class I permeabilizing plant defensin, mature protein SEQ ID NO:25 (RMCKAPSKLFRGMCGIRDSNCDSVCRAEGMAAGDCHGLRRRCICSRPC; HXL012 Amaranthus retroflexus)”, the Observed inhibition in assay [1] (setting [4]) came out at 51.2%; in assay [3] (setting [8]) it was 89.7%; in assay [3] (setting [9]) it was 100.0%; in assay [3] (setting [14]), 97.3%. Further, the Expected inhibition turned out to be 0% in assay [1] (setting [4]), 14.8% in assay [3] (setting [8]), 12.3% in assay [3] (setting [9]) and 34.5% in assay [3] (setting [14]). Further, the Synergy in assay [1] (setting [4]) came to 51.2; in assay [3] (setting [8]), 74.9; in assay [3] (setting [9]), 87.7; in assay [3] (setting [14]), 62.8.

In the case of “HXL015: Class I permeabilizing plant defensin, mature protein SEQ ID NO:32 (RHCLSQSHRFKGMCVSSNNCANVCRTESFPDGECKSHGLERKCFCKKVC; HXL015 Oryza sativa)”, the Observed inhibition came out at 71.8% in assay [1] (setting [15]), 100.0% in assay [3] (setting [16]), 100.0% in assay [3] (setting [17]) and 94.7% in assay [3] (setting [18]). Besides, the Expected inhibition in assay [1] (setting [15]) is on record as 19%; in assay [3] (setting [16]), 28.1%; in assay [3] (setting [17]), 0.0%; in assay [3] (setting [18]) it was 0.0%. In addition, the Synergy in assay [1] (setting [15]) is 52.8; in assay [3] (setting [16]), 71.9; in assay [3] (setting [17]) it was 100.0; in assay [3] (setting [18]), 94.7.

As for “RsAFP2: non-permeabilizing defensin used as comparison (QKLCQRPSGTWSGVCGNNNACKNQCIRLEKARHGSCNYVFPAHKCICYFPC; UniProt P30230 30-80, looked up) [reference compound]”, in assay [1] (setting [19]), the Observed inhibition was 19.0%, the Expected inhibition is on record as 1.7% and the Synergy turned out to be 17.3.

As for “HXL009: Class I permeabilizing plant defensin, mature protein SEQ ID NO:33 (TVCMRHNNFYHGPCMSNKDCANSCVQHNLGVGGYCRGKIPFNKECMCTFEC; HXL009)”, in assay [1] (setting [4]), the Observed inhibition was 65.2%, the Expected inhibition was 3.7% and the Synergy is given as 61.5.

Turning to “HXL013: Class I permeabilizing plant defensin, mature protein SEQ ID NO:31 (KDCLTRRHGFQGRCLFDRQCAHVCRSDGFIGGQCRGPLRKCFCSRPC; HXL013 glycine max)”, in assay [1] (setting [20]), the Observed inhibition is 90.8%, the Expected inhibition was found to be 4.3% and the Synergy came out at 86.5. Besides, in assay [3] (setting [17]), the Observed inhibition was 100.0%, the Expected inhibition is 10.1% and the Synergy came to 89.9. Further, in assay [3] (setting [18]), the Observed inhibition stood at 100.0%, the Expected inhibition is 13.8% and the Synergy is on record as 86.2.

Take “HXL002: Class I permeabilizing plant defensin, mature protein SEQ ID NO:27 (RDCLSQSHKFKGACLSSSNCAAVCRTENFPDGECHTHNFARKCFCKRAC; HXL002 Triticum aestivum)”: in assay [1] (setting [4]), the Observed inhibition was 40.8%, the Expected inhibition worked out at 6.1% and the Synergy is on record as 34.7.

In the case of “HXL004: Class I permeabilizing plant defensin, mature protein SEQ ID NO:28 (RTCESQSHRFKGLCFSRSNCASVCHTEGFNGGHCRGFRRRCFCTRHC; HXL004 Nicotiana benthamiana)”, the Observed inhibition in assay [1] (setting [20]) is given as 92.3%; in assay [3] (setting [11]) it was 91.2%; in assay [3] (setting [12]) it was 93.5%; in assay [3] (setting [13]), 81.8%. Further, the Expected inhibition in assay [1] (setting [20]) was 14.0%; in assay [3] (setting [11]) it was 9.6%; in assay [3] (setting [12]) it was 63.6%; in assay [3] (setting [13]), 55.2%. Further, the Synergy in assay [1] (setting [20]) was 78.3; in assay [3] (setting [11]) it was 81.6; in assay [3] (setting [12]) it was 29.9; in assay [3] (setting [13]) it was 26.6.
